# From patent US20050054637A1, “Substituted piperazine cyclohexane carboxilic acid amides and the use thereof” (priority 2001, published 2005)
# Columns and labels:
# [1] = tested on: adenosine uptake in rabbit erythrocytes; test: Inhibition of the adenosine uptake in rabbit erythrocytes (functional adenosine-uptake test); format: cell-based; details: Oryctolagus cuniculus, 0.25 h; rabbit erythrocyte preparation, 30° C., adenosine remaining 15 min after addition of adenosine
# Method: 1. Inhibition of the Adenosine Uptake in Rabbit Erythrocytes by the Compounds According to the Invention
# The capability of substnaces to influence the adenosine-uptake system is investigated by determining the inhibitory effect of the substances on functional adenosine uptake.
# For the functional adenosine-uptake test, an erythrocyte preparation from rabbit blood is used. The blood is drawn intravenously using citrate (3 ml Monovette 9NC from Sarstedt) as anticoagulant. The blood is centrifuged at 3000 g for 5 min and the erythrocytes are suspended in 10 mM 3-(N-morpholino)propanesulphonic acid buffer (MOPS)/0.9% aqueous sodium chloride solution pH 7.4. The suspension is diluted to one hundredth of the original blood volume. In each case, 990 μl of the suspension are admixed with 10 μl of a suitable concentration of the substance to be examined, and the mixture is incubated at 30° C. for 5 min. 5 μl of a 4 mM adenosine solution are then added, and the mixture is incubated at 30° C. for another 15 min. The samples are then centrifuged at 3000 g for 5 min and in each case 700 μl of the supernatant are mixed with 28 μl of 70% strength HClO4, allowed to stand in an ice bath for 30 min and centrifuged at 16 000 g for 3 min, and 350 μl of the sample are neutralized using 30 μl of 5 N NaOH. 50 μl of the sample are applied to a column (Waters Symmetry C18 5 μm, 3.9×150 mm). A Spherisorb ODS II 5 μm, 4.6×10 mm column is used as precolumn The mobile phase used is a gradient of 50 mM KH2PO4/5 mM tributylamine pH 7 (mobile phase A) and a mixture of mobile phase A/methanol 1:1 (mobile phase B). The gradient is from 10% to 40% B, at a flow rate of 0.5 ml/min. The adenosine which is present is quantified by its absorption at 260 nm, as are the hypoxanthine and inosine formed.
# Table 1 below lists the IC50 values obtained using this test: […]
# [2] = tested on: mongrel dogs; test: In vivo test model for adenosine-uptake inhibitors: reactive hyperaemia after coronary occlusion in anaesthetized dogs; parameters: species or system dog; details: 10 μg/kg i.v., reactive hyperaemia after four-minute occlusion
# Method: 2. In vivo Test Model for Testing Adenosine-Uptake Inhibitors
# Adult mongrel dogs (body weight 20-30 kg) are initially anaesthetized using a combination of trapanal 500 mg and alloferin 55 mg. Anaesthesia is maintained by infusion of a mixture of fentanyl 0.072 mg/kg, alloferin 0.02 mg/kg and dihydrobenzpyridyl 0.25 mg/kg×min. The animals are intubated and ventilated with a mixture of O2/N2O (ratio 1:5) using a Dräger ventilation pump at 16 breaths per min and a volume of 18-24 ml/kg. The body temperature is maintained at 38° C.±0.1° C. Arterial blood pressure is measured via a catheter in the femoral artery. A thoractomy is carried out on the left side at the fifth intercostal space. The lung is pushed back and fixed and a cut is made in the pericardium. A proximal section of the LAD distally to the first diagonal branch is exposed and a calibrated electromagnetic flow sensor (from Scalar) is placed around the vessel and attached to a flow meter (from Scalar, model MDL 1401). Distally to the flow sensor, a mechanical occluder is attached such that there are no branches in between flow sensor and occluder.
# Using a catheter in the femoral vein, blood samples are taken and substances (10 μg/kg i.v.) are administered. A peripheral ECG is recorded using needles which are fixed subcutaneously. A microtip pressure manometer (from Millar, model PC-350) is pushed through the left atrium to measure the pressure in the left ventricle. Measurement of the heart frequency is triggered by the R wave of the ECG. During the entire experiment, the haemodynamic parameters and the coronary flow are recorded using a multi-event recorder.
# A four-minute occlusion causes reactive hyperaemia. The difference between the coronary flow under control conditions and the maximum flow during the reactive hyperaemia is measured. The time which is required to achieve half of this maximum flow in the drop is a suitable parameter to assess the reaction hyperaemia.
# After a stabilization period of one hour, the experiment is started with a four-minute occlusion. Thirty minutes later, the substance is administered (i.v.) which is, after two minutes, followed by re-occlusion. The reactive hyperaemia after verum and placebo is compared.
IC50 [1],SMILES,Increase of coronary blood flow in % [2]
30 nM,"NC(=O)[C@@H](NC(=O)[C@@H]1CCCC[C@H]1N1CCN(C(=O)c2ccccc2)CC1)c1ccccc1 [Example 1, (1R,2R)-N-[(1S)-2-Amino-2-oxo-1-phenylethyl]-2-(4-benzoyl-1-piperazinyl)cyclo-hexanecarboxamide]",258%
20 nM,NC(=O)[C@@H](NC(=O)[C@@H]1CCCC[C@H]1N1CCN(C(=O)c2ccccc2F)CC1)c1ccccc1 [Example 27],–
20 nM,"Cc1ccc(C(=O)N2CCN([C@@H]3CCCC[C@H]3C(=O)N[C@H](C(N)=O)c3ccccc3)CC2)s1 [Example 17, (1R,2R)-N-[(1S)-2-Amino-2-oxo-1-phenylethyl]-2-{4-[(5-methyl-2-thienyl)-carbonyl]-1-piperazinyl}cyclohexanecaiboxamide]",250%
30 nM,"NC(=O)[C@@H](NC(=O)[C@@H]1CCCC[C@H]1N1CCN(C(=O)c2ccc[nH]2)CC1)c1ccccc1 [Example 18, (1R,2R)-N-[(1S)-2-Amino-2-oxo-1-phenylethyl]-2-{4-[(2-pyrrolyl)carbonyl]-1-piperazinyl}cyclohexanecarboxamide]",347%

# The next lines start with the compound.
SMILES,IC50 [1],Increase of coronary blood flow in % [2]
"NC(=O)[C@@H](NC(=O)[C@@H]1CCCC[C@H]1N1CCN(C(=O)c2ccc(F)cc2F)CC1)c1ccccc1 [Example 16, (1R,2R)-N-[(1S)-2-Amino-2-oxo-1-phenylethyl]-2-[4-(2,4-difluorobenzoyl)-1-piperazinyl)cyclohexanecarboxamide]",30 nM,326%
NC(=O)[C@@H](NC(=O)[C@@H]1CCCC[C@H]1N1CCN(C(=O)c2ccc3c(c2)OCO3)CC1)c1ccccc1 [Example 66],20 nM,–
NC(=O)[C@@H](NC(=O)[C@@H]1CCCC[C@H]1N1CCN(C(=O)OC2CCCC2)CC1)c1ccccc1 [Example 21],15 nM,–
"NC(=O)[C@@H](NC(=O)[C@@H]1CCCC[C@H]1N1CCN(C(=O)c2ccccc2)CC1)c1ccc(F)cc1 [Example 2, (1R,2R)-N-[(1S)-2-Amino-2-oxo-1-(4-fluorophenyl)ethyl]-2-(4-benzoyl-1-piperazin-yl)cyclohexanecarboxamide]",30 nM,–
"NC(=O)[C@@H](NC(=O)[C@@H]1CCCC[C@H]1N1CCN(Cc2ccccc2)CC1)c1ccc(F)cc1 [Example 8, (1R,2R)-N-[(1S)-2-Amino-1-(4-fluorophenyl)-2-oxoethyl]-2-(4-benzyl-1-piperazinyl)cyclohexanecarboxamide]",80 nM,–
"NC(=O)[C@@H](NC(=O)[C@@H]1CCCC[C@H]1N1CCN(C(=O)c2n[nH]c3ccccc23)CC1)c1ccccc1 [Example 3, (1R,2R)-N-[(1S)-2-Amino-2-oxo-1-phenylethyl]-2-[4-(1H-indazol-3-ylcarbonyl)-1-piperazinyl]cyclohexanecarboxamide]",30 nM,–
